Literature values as cited in patent US20100003224A1, “Combination Therapy” (GENZYME CORPORATION, priority 2006, published 2010).

Legend:
progenitor cells = conditions: single agent
[1] = tested on: collagen-induced arthritis; conditions: mice
white blood cell counts = conditions: WO 00/45814
pre-B-ALL cells [2] = conditions: in vitro
pre-B-ALL cells [3] = conditions: in vitro; remark: listed apart in the source
multiple sclerosis = conditions: in vivo

| Molecule | mobilization of progenitor cells (progenitor cells) | effects in collagen-induced arthritis models [1] | white blood cell counts (white blood cell counts) | SDF-1 induced chemotaxis of pre-B-ALL cells into bone marrow stroma layers (pre-B-ALL cells [2]) | cytotoxic and antiproliferative effects of vincristine and dexamethasone (pre-B-ALL cells [3]) | efficacy in the treatment of multiple sclerosis (multiple sclerosis) |
| --- | --- | --- | --- | --- | --- | --- |
| c1cc(CN2CCCNCCNCCCNCC2)ccc1CN1CCCNCCNCCCNCC1 [AMD3100, 1,1′-[1,4-phenylene-bis(methylene)]-bis-1,4,8,11-tetraazacyclotetradecane] | mobilizes progenitor cells | protective effects | elevate white blood cell counts | blocked | enhanced |  |
| natalizumab: humanized monoclonal antibody against α4 (anti-VLA-4 antibody) |  |  |  |  |  | demonstrated efficacy |
